Assay results reported in the NIST ThermoML archive (doi:10.1016/j.jct.2008.10.010).

Assay: molar heat capacity at constant pressure; xn = mol fraction of the nth substance listed
Conditions: 101.3 kPa, Liquid, Small sample (50 mg) DSC

CCC(C)(C)O [2-methylbutan-2-ol] + CCCCCCC
Conditions | molar heat capacity at constant pressure [J/K/mol]
318.15 K, x1 = 0.4051 | 268.55
318.15 K, x1 = 0.4986 | 270.68
318.15 K, x1 = 0.5981 | 271.65
318.15 K, x1 = 0.7015 | 272.08
318.15 K, x1 = 0.8023 | 271.36
318.15 K, x1 = 0.9139 | 270.14
318.15 K, x1 = 0.9609 | 269.17
319.15 K, x1 = 0.0061 | 232.58
319.15 K, x1 = 0.0494 | 240.63
319.15 K, x1 = 0.1 | 249.49
319.15 K, x1 = 0.1547 | 255.72
319.15 K, x1 = 0.1999 | 259.62
319.15 K, x1 = 0.2993 | 265.58
319.15 K, x1 = 0.4051 | 269.3
319.15 K, x1 = 0.4986 | 271.51
319.15 K, x1 = 0.5981 | 272.56
319.15 K, x1 = 0.7015 | 273.04
319.15 K, x1 = 0.8023 | 272.38
319.15 K, x1 = 0.9609 | 270.15
319.16 K, x1 = 0.0249 | 235.12
319.16 K, x1 = 0.9139 | 271.16
320.14 K, x1 = 0.0061 | 232.92
320.14 K, x1 = 0.0249 | 235.28
320.14 K, x1 = 0.0494 | 240.72
320.14 K, x1 = 0.1 | 249.68
320.14 K, x1 = 0.1547 | 255.93
320.14 K, x1 = 0.1999 | 260.03
320.14 K, x1 = 0.2993 | 266.13
320.14 K, x1 = 0.4051 | 269.96
320.14 K, x1 = 0.4986 | 272.22
320.14 K, x1 = 0.5981 | 273.33
320.14 K, x1 = 0.7015 | 273.87
320.14 K, x1 = 0.8023 | 273.27
320.14 K, x1 = 0.9139 | 272.09
320.14 K, x1 = 0.9609 | 270.99
321.15 K, x1 = 0.0061 | 233.36
321.15 K, x1 = 0.0249 | 235.64
321.15 K, x1 = 0.0494 | 240.94
321.15 K, x1 = 0.1 | 249.94
321.15 K, x1 = 0.1547 | 256.42
321.15 K, x1 = 0.1999 | 260.55
321.15 K, x1 = 0.2993 | 266.78
321.15 K, x1 = 0.4051 | 270.74
321.15 K, x1 = 0.4986 | 273.12
321.15 K, x1 = 0.5981 | 274.26
321.15 K, x1 = 0.7015 | 274.94
321.15 K, x1 = 0.8023 | 274.3
321.15 K, x1 = 0.9139 | 273.21
321.15 K, x1 = 0.9609 | 272.08
322.15 K, x1 = 0.0061 | 233.83
322.15 K, x1 = 0.0249 | 235.95
322.15 K, x1 = 0.0494 | 241.13
322.15 K, x1 = 0.1 | 250.19
322.15 K, x1 = 0.1547 | 256.8
322.15 K, x1 = 0.1999 | 261.03
322.15 K, x1 = 0.2993 | 267.36
322.15 K, x1 = 0.4051 | 271.46
322.15 K, x1 = 0.4986 | 273.9
322.15 K, x1 = 0.5981 | 275.18
322.15 K, x1 = 0.7015 | 275.82
322.15 K, x1 = 0.8023 | 275.19
322.15 K, x1 = 0.9139 | 274.13
322.15 K, x1 = 0.9609 | 272.97
323.14 K, x1 = 0.0061 | 234.21
323.14 K, x1 = 0.0249 | 236.15
323.14 K, x1 = 0.0494 | 241.26
323.14 K, x1 = 0.1 | 250.37
323.14 K, x1 = 0.1547 | 257.15
323.14 K, x1 = 0.1999 | 261.38
323.14 K, x1 = 0.2993 | 267.94
323.14 K, x1 = 0.4051 | 272.09
323.14 K, x1 = 0.4986 | 274.67
323.14 K, x1 = 0.5981 | 275.95
323.14 K, x1 = 0.7015 | 276.7
323.14 K, x1 = 0.8023 | 276.15
323.14 K, x1 = 0.9139 | 275.08
323.14 K, x1 = 0.9609 | 273.92
324.15 K, x1 = 0.0061 | 234.52
324.15 K, x1 = 0.0249 | 236.43
324.15 K, x1 = 0.0494 | 241.45
324.15 K, x1 = 0.1 | 250.6
324.15 K, x1 = 0.1547 | 257.46
324.15 K, x1 = 0.1999 | 261.78
324.15 K, x1 = 0.2993 | 268.5
324.15 K, x1 = 0.4051 | 272.8
324.15 K, x1 = 0.4986 | 275.41
324.15 K, x1 = 0.5981 | 276.79
324.15 K, x1 = 0.7015 | 277.57
324.15 K, x1 = 0.8023 | 277.05
324.15 K, x1 = 0.9139 | 275.96
324.15 K, x1 = 0.9609 | 274.86
325.15 K, x1 = 0.0061 | 234.92
325.15 K, x1 = 0.0249 | 236.8
325.15 K, x1 = 0.0494 | 241.6
325.15 K, x1 = 0.1 | 250.76
325.15 K, x1 = 0.1547 | 257.7
325.15 K, x1 = 0.1999 | 262.12
325.15 K, x1 = 0.2993 | 269.04
325.15 K, x1 = 0.4051 | 273.4
325.15 K, x1 = 0.4986 | 276.1
325.15 K, x1 = 0.5981 | 277.56
325.15 K, x1 = 0.7015 | 278.38
325.15 K, x1 = 0.8023 | 277.92
325.15 K, x1 = 0.9139 | 276.88
325.15 K, x1 = 0.9609 | 275.71
326.14 K, x1 = 0.0061 | 235.39
326.14 K, x1 = 0.0249 | 237.1
326.14 K, x1 = 0.0494 | 241.8
326.14 K, x1 = 0.1 | 250.96
326.14 K, x1 = 0.1547 | 258.02
326.14 K, x1 = 0.1999 | 262.54
326.14 K, x1 = 0.2993 | 269.54
326.14 K, x1 = 0.4051 | 274.06
326.14 K, x1 = 0.4986 | 276.85
326.14 K, x1 = 0.5981 | 278.41
326.14 K, x1 = 0.7015 | 279.29
326.14 K, x1 = 0.8023 | 278.83
326.14 K, x1 = 0.9139 | 277.8
326.14 K, x1 = 0.9609 | 276.69
327.14 K, x1 = 0.1999 | 262.84
327.15 K, x1 = 0.0061 | 235.69
327.15 K, x1 = 0.0249 | 237.39
327.15 K, x1 = 0.0494 | 241.94
327.15 K, x1 = 0.1 | 251.07
